Ten molecules from PMC3433420 (PLoS ONE, 2012) can be followed below.

In assay [1] the target is T1, PIK3R1-N SH2 domain (Homo sapiens, UniProt P27986).
T1 construct: thioredoxin; made in house; host or cells: E. coli BL21(DE3)pLysS
Kind of assay: biochemical. The assay is classed as binding. The following applies: high-confidence ErbB interactions.

Assay [2] addresses PIK3R2-NC tandem SH2 domains (Homo sapiens, UniProt O00459). The assay can be described thus: FP saturation binding assay.
The target of assay [3] is T2, PTPN11-NC tandem SH2 domains (Homo sapiens, UniProt Q06124).
T2 sequence (Q06124 6-216 limits assumed): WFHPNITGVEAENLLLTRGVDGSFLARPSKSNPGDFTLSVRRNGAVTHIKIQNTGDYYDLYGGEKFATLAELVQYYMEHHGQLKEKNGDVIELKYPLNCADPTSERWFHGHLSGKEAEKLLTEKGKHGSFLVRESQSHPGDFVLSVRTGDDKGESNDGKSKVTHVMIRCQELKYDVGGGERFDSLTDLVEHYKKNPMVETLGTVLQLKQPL
The assay can be described thus: FP saturation binding assay.

Assay [4] has as its target T3, PLCG1-C SH2 domain (Homo sapiens, UniProt P19174).
T3 construct: The 6X His-tagged SH2 domain proteins used in the assay, PLCG1-C, SHC4, VAV2; thioredoxin; made in house; host or cells: E. coli BL21(DE3)pLysS
T3 sequence (P19174 668-756 limits assumed): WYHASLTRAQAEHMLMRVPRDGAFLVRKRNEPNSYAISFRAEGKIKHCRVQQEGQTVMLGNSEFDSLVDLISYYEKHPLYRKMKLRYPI
The assay can be described thus: biochemical. The class given is binding. The following applies: high-confidence ErbB interactions.

The target of assay [5] is T4, SH2 and PTB domains (Homo sapiens, UniProt P43405).
T4 construct: thioredoxin; made in house; host or cells: BL21(DE3)pLysS E. coli
The assay can be described thus: In-house protein microarrays (with or without 5 mM DTT), protein named per line. The class given is binding. Conditions: array fabrication # 39329. The method, boiled down:
(§1)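 KD values come from rhodamine fluorescence of duplicate spots after subtraction of a thioredoxin control. Domains were printed at ~40 µM on aldehyde slides, blocked 1 h at room temperature in pH 7.8 HEPES/KCl buffer with 5 mM DTT and 1% BSA, then peptide-probed.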

Assay [6] addresses T5, SH2 and PTB domains (Homo sapiens, UniProt O43639).
T5 construct: thioredoxin; made in house; host or cells: BL21(DE3)pLysS E. coli
The description is as above. The class given is binding. The following applies: protein NCK2, array fabrication # 39329. The method in brief:
as §1

Assay [7] concerns the target GRB7 SH2 domain (Homo sapiens, UniProt Q14451). The assay can be described thus: FP saturation binding assay.
Where [8] appears, read: Protein PIK3R1-N, FP saturation binding, mean over replicate hits.
Setting [9] is: protein SYK-N, PM assay replicate # 39336.
Where [10] appears, read: protein SYK-NC, PM assay replicate # 39336.

Residues, ends and D or L forms follow the SMILES beside them.

T1 sequence (P27986 333-428 limits assumed): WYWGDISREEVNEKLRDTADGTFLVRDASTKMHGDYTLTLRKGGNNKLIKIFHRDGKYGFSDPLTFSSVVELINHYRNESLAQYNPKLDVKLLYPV
PIK3R2-NC tandem SH2 domains, sequence (O00459 330-716 limits assumed): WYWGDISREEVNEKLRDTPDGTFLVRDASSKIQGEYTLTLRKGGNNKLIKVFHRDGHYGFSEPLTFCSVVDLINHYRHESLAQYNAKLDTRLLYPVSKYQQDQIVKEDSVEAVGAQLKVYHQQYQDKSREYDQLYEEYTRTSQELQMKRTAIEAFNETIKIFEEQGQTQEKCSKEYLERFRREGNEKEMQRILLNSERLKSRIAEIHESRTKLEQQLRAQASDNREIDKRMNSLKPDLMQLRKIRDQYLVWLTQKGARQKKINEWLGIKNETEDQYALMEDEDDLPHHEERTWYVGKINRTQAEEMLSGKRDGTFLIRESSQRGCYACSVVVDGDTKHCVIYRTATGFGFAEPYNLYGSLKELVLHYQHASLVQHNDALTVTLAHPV
GRB7 SH2 domain, sequence (Q14451 431-527 limits assumed): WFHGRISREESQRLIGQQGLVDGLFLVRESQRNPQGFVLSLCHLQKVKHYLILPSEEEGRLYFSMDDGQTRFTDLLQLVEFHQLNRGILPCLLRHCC
T5 sequence (O43639 whole entry, the tested form may be a part): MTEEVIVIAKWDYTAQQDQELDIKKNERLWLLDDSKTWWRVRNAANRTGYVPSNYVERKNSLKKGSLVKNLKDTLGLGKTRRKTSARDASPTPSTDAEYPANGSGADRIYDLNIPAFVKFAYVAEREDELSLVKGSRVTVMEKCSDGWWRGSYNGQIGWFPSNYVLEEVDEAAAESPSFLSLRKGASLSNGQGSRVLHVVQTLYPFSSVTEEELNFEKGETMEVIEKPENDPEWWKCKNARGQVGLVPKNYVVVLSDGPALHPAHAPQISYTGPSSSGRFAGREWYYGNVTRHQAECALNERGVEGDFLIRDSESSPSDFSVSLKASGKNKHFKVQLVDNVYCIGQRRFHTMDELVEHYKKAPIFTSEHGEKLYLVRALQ

A word on the Kd: it is the concentration at which binding is half-saturated. In the case of `CC(C)C[C@H](NC(=O)[C@H](Cc1ccc(OP(=O)(O)O)cc1)NC(=O)[C@H](CCC(=O)O)NC(=O)[C@H](CCC(=O)O)NC(=O)[C@H](C)NC(=O)[C@@H](N)CC(=O)O)C(=O)N[C@H](C(=O)N1CCC[C@H]1C(=O)N[C@@H](CCC(N)=O)C(=O)N[C@@H](CCC(N)=O)C(=O)NCC(=O)N[C@@H](Cc1ccccc1)C(=O)N[C@@H](CC(=O)O)C(=O)O)C(C)C` [ErbB2 1023 13-mer] (HELM PEPTIDE1{D.A.E.E.[O=C([C@H](Cc1ccc(OP(=O)(O)O)cc1)N[*:1])[*:2]].L.V.P.Q.Q.G.F.D}$$$$V2.0), the Kd in assay [1] (setting [8]) was 15.8 µM; in assay [2], 6.09 µM; in assay [3] it was 10.6 µM.
In the case of `CC(C)[C@H](NC(=O)[C@H](CC(=O)O)NC(=O)[C@@H]1CCCN1C(=O)[C@H](CCC(N)=O)NC(=O)[C@H](CC(N)=O)NC(=O)[C@@H](NC(=O)[C@H](Cc1ccc(OP(=O)(O)O)cc1)NC(=O)[C@H](CCC(=O)O)NC(=O)[C@@H]1CCCN1C(=O)[C@H](CCC(N)=O)NC(=O)[C@@H]1CCCN1)C(C)C)C(=O)N[C@@H](CCCNC(=N)N)C(=O)N[C@@H](CC(=O)O)C(=O)O` [ErbB2 1139 13-mer] (HELM PEPTIDE1{P.Q.P.E.[O=C([C@H](Cc1ccc(OP(=O)(O)O)cc1)N[*:1])[*:2]].V.N.Q.P.D.V.R.D}$$$$V2.0), the Kd came to 5.81 µM in assay [2] and 8.71 µM in assay [3].
Take `CC(C)C[C@H](NC(=O)[C@H](CC(N)=O)NC(=O)[C@@H](N)CC(=O)O)C(=O)N[C@@H](Cc1ccc(O)cc1)C(=O)N[C@@H](Cc1ccc(OP(=O)(O)O)cc1)C(=O)N[C@@H](Cc1c[nH]c2ccccc12)C(=O)N[C@@H](CC(=O)O)C(=O)N[C@@H](CCC(N)=O)C(=O)N[C@@H](CC(=O)O)C(=O)N1CCC[C@H]1C(=O)N1CCC[C@H]1C(=O)N[C@@H](CCC(=O)O)C(=O)N[C@@H](CC(=O)O)C(=O)O` [ErbB2 1222 13-mer] (HELM PEPTIDE1{D.N.L.Y.[O=C([C@H](Cc1ccc(OP(=O)(O)O)cc1)N[*:1])[*:2]].W.D.Q.D.P.P.E.D}$$$$V2.0): the Kd stood at 10.7 µM in assay [1] (setting [8]); 0.78 µM in assay [4] (Protein PLCG1-C, FP saturation binding, mean over replicate hits); 7.81 µM in assay [2]; 9.45 µM in assay [3].
For the molecule `CC(C)C[C@H](NC(=O)[C@@H]1CCCN1)C(=O)N[C@@H](CCC(N)=O)C(=O)N[C@@H](CCCNC(=N)N)C(=O)N[C@@H](Cc1ccc(OP(=O)(O)O)cc1)C(=O)N[C@@H](CO)C(=O)N[C@@H](CCC(=O)O)C(=O)N[C@@H](CC(=O)O)C(=O)N1CCC[C@H]1C(=O)N[C@H](C(=O)N[C@H](C(=O)N1CCC[C@H]1C(=O)N[C@@H](CC(=O)O)C(=O)O)C(C)C)[C@@H](C)O` [ErbB2 pY1112] (HELM PEPTIDE1{P.L.Q.R.[O=C([C@H](Cc1ccc(OP(=O)(O)O)cc1)N[*:1])[*:2]].S.E.D.P.T.V.P.D}$$$$V2.0), the equilibrium dissociation constant (Kd) came to 3.62 µM in assay [5] (protein SYK-N, PM assay replicate # 39331); 14.58 µM in assay [5] (setting [9]); 0.89 µM in assay [5] (protein SYK-NC, PM assay replicate # 39331); 0.80 µM in assay [5] (setting [10]).
Take `CC(C)C[C@H](NC(=O)[C@@H]1CCCN1C(=O)[C@H](C)NC(=O)[C@@H](NC(=O)[C@H](Cc1ccc(OP(=O)(O)O)cc1)NC(=O)CNC(=O)[C@H](CC(=O)O)NC(=O)[C@@H](NC(=O)[C@@H](N)CCC(=O)O)[C@@H](C)O)C(C)C)C(=O)N[C@H](C(=O)N[C@@H](CS)C(=O)N[C@@H](CO)C(=O)N[C@@H](CC(=O)O)C(=O)O)[C@@H](C)O` [ErbB2 pY1127]: the dissociation constant (Kd) in assay [6] (PM assay replicate # 39336) was found to be 1.56 µM; in assay [6] (PM assay replicate # 39337), 0.46 µM; in assay [5] (protein SYK-C, PM assay replicate # 39336) it was 2.39 µM; in assay [5] (protein SYK-C, PM assay replicate # 39337), 1.92 µM; in assay [5] (setting [9]), 2.33 µM; in assay [5] (protein SYK-N, PM assay replicate # 39337) it was 3.21 µM. In addition, the “Kd” value in assay [5] (setting [10]) turned out to be 1.30 µM; in assay [5] (protein SYK-NC, PM assay replicate # 39337), 0.96 µM.
In turn, `CSCC[C@H](NC(=O)[C@H](Cc1ccc(OP(=O)(O)O)cc1)NC(=O)[C@H](CCC(=O)O)NC(=O)[C@H](Cc1ccc(O)cc1)NC(=O)CNC(=O)[C@@H](N)CC(C)C)C(=O)N[C@@H](CC(=O)O)C(=O)N[C@H](C(=O)NCC(=O)N[C@@H](CO)C(=O)N[C@@H](CC(=O)O)C(=O)N[C@@H](CC(C)C)C(=O)N[C@@H](CC(=O)O)C(=O)O)C(C)C` [ErbB3 1224 13-mer] (HELM PEPTIDE1{L.G.Y.E.[O=C([C@H](Cc1ccc(OP(=O)(O)O)cc1)N[*:1])[*:2]].M.D.V.G.S.D.L.D}$$$$V2.0) displayed a Kd in assay [2] of 3.31 µM.
In turn, `CSCC[C@H](NC(=O)[C@H](CCC(=O)O)NC(=O)[C@H](CCC(=O)O)NC(=O)[C@H](Cc1ccc(OP(=O)(O)O)cc1)NC(=O)CNC(=O)[C@H](CCC(N)=O)NC(=O)[C@H](CCC(=O)O)NC(=O)[C@@H](N)CO)C(=O)N[C@@H](CCCNC(=N)N)C(=O)N[C@@H](C)C(=O)N[C@@H](Cc1ccccc1)C(=O)N[C@@H](CCC(N)=O)C(=O)N[C@@H](CC(=O)O)C(=O)O` [ErbB3 1289 13-mer] (HELM PEPTIDE1{S.E.Q.G.[O=C([C@H](Cc1ccc(OP(=O)(O)O)cc1)N[*:1])[*:2]].E.E.M.R.A.F.Q.D}$$$$V2.0) returned a Kd in assay [1] (protein PIK3R1-N, FP, mean of replicate hits) of 0.25 µM.
Take `CSCC[C@H](NC(=O)[C@H](Cc1ccc(OP(=O)(O)O)cc1)NC(=O)CNC(=O)[C@H](CCC(=O)O)NC(=O)[C@H](CCC(=O)O)NC(=O)[C@H](CC(=O)O)NC(=O)[C@H](CC(C)C)NC(=O)[C@H](CCC(=O)O)NC(=O)CNC(=O)[C@H](CCCNC(=N)N)NC(=O)[C@@H]1CCCN1)C(=O)N[C@H](C(=O)N1CCC[C@H]1C(=O)N[C@@H](CCSC)C(=O)N[C@@H](CCCNC(=N)N)C(=O)N[C@@H](CC(=O)O)C(=O)N[C@@H](CCCCN)C(=O)N[C@@H](CC(=O)O)C(=O)O)[C@@H](C)O` [ErbB4 1150 18-mer] (HELM PEPTIDE1{P.R.G.E.L.D.E.E.G.[O=C([C@H](Cc1ccc(OP(=O)(O)O)cc1)N[*:1])[*:2]].M.T.P.M.R.D.K.D}$$$$V2.0): the Kd in assay [4] (protein PLCG1-C, FP, mean of replicate hits) is 3.1 µM.
With `CC(C)C[C@H](NC(=O)[C@H](Cc1ccc(OP(=O)(O)O)cc1)NC(=O)[C@H](CC(C)C)NC(=O)[C@@H]1CCCN1C(=O)[C@H](CCC(=O)O)NC(=O)[C@H](CC(N)=O)NC(=O)[C@@H](NC(=O)[C@H](Cc1ccc(O)cc1)NC(=O)[C@H](CCC(=O)O)NC(=O)[C@H](CC(=O)O)NC(=O)[C@@H](N)CCC(=O)O)C(C)C)C(=O)N[C@@H](CC(N)=O)C(=O)N[C@H](C(=O)N[C@@H](Cc1ccccc1)C(=O)N[C@@H](C)C(=O)N[C@@H](CC(N)=O)C(=O)N[C@H](C(=O)N[C@@H](CC(=O)O)C(=O)O)[C@@H](C)O)[C@@H](C)O` [ErbB4 1208 18-mer] (HELM PEPTIDE1{E.D.E.Y.V.N.E.P.L.[O=C([C@H](Cc1ccc(OP(=O)(O)O)cc1)N[*:1])[*:2]].L.N.T.F.A.N.T.D}$$$$V2.0), the Kd in assay [7] (Mean KD, protein GRB7, high-confidence ErbB interactions, mean of replicate hits) turned out to be 9.99 µM; in assay [4] (protein PLCG1-C, mean of replicate hits), 2.07 µM.
For the molecule DNLYpYWDQDPPEd [ErbB2 pY1222], the “interaction with GRB7 on the FP platform” value in assay [7] (peptides queried on both FP and PM platforms) is “only displayed interactions with GRB7 from the PM platform”.
